Data: paper PMC6588697, “Lugdunin amplifies innate immune responses in the skin in synergy with host- and microbiota-derived factors” (Nature Communications, 2019)
“And” between values parts separate entries of the source, which are not always exact repeats. Equal entries are not always repeated.

System: mouse skin
Experiment: Immune cell composition of mouse skin after epicutaneous treatment (flow cytometry)
Assay type: in vivo, C57BL/6 WT, MyD88-ko, 5xTLR-ko mice
Details: for percentage of monocytes (Ly6C+Ly6G−) of CD11b+CD45+ live cells / percentage of neutrophils (Ly6C+Ly6G+) of CD11b+CD45+ live cells: Fig 3d
Experimental: Fig. 3 Epicutaneous lugdunin recruits phagocytic cells. a Schematic overview of the mouse experiments: 6–8-week-old female C5BL/6 wild-type (WT), MyD88-ko, or 5xTLR-ko mice were epicutaneously treated with 1.5 µg lugdunin or phosphate-buffered saline (PBS) as a control. After 24 h, mice were euthanized, immune cells were isolated from treated skin areas, and immune cell composition was analyzed by flow cytometry. b Shown is the mean percentage of CD45+ live cells in mouse skin of 10 C57BL/6 WT mice ± s.e.m. One mouse is represented as two dots analyzed by two different stainings. c Pie charts show the mean percentage of the different immune cell subsets in the skin of 10 WT mice after 24 h of PBS or lugdunin treatment. d Shown are representative flow cytometry data (left panel) and the mean percentage of neutrophils (Ly6C+Ly6G+) and monocytes (Ly6C+Ly6G−) pregated on CD11b+CD45+ live cells (see Supplementary Fig. 3a, f for the gating strategy) in mouse skin ± s.e.m. One dot represents one mouse. *P < 0.05. e Representative myeloperoxidase (MPO)-stained paraffin-embedded mouse skin sections. Scale bar, 100 µM. Source data are provided as a Source Data file TEXT PRINTED IN THE PICTURE: (c) PBS: NK cells: 21%; B cells: 0%; T cells: 10%; Dendritic cells: 8%; CD11b+ cells: 43%; Others: 18%; Macrophages: 73%; Monocytes: 15%; Neutrophils: 3%; Others: 9% | (c) Lugdunin: NK cells: 18%; B cells: 0%; T cells: 11%; Dendritic cells: 10%; CD11b+ cells: 45%; Others: 16%; Macrophages: 64%; Monocytes: 21%; Neutrophils: 6%; Others: 9% | (d) PBS: Monocytes 13,3 (WT); Neutrophils 2,51 (WT); Q4 83,6 (WT); Q3 0,53 (WT); Monocytes 2,34 (MyD88-ko); Neutrophils 0,95 (MyD88-ko); Q4 94,4 (MyD88-ko); Q3 2,27 (MyD88-ko); Monocytes 12,8 (5xTLR-ko); Neutrophils 0,88 (5xTLR-ko); Q4 85,0 (5xTLR-ko); Q3 1,32 (5xTLR-ko) | (d) Lugdunin: Monocytes 17,3 (WT); Neutrophils 11,1 (WT); Q4 70,6 (WT); Q3 0,99 (WT); Monocytes 3,14 (MyD88-ko); Neutrophils 0,54 (MyD88-ko); Q4 94,9 (MyD88-ko); Q3 1,41 (MyD88-ko); Monocytes 12,9 (5xTLR-ko); Neutrophils 1,74 (5xTLR-ko); Q4 84,3 (5xTLR-ko); Q3 1,06 (5xTLR-ko) DOUBTS OF THE COPYIST ABOUT THIS PICTURE: Panel c: the percentages are printed on the pie slices without cell-type names. They were matched to cell types only by the colour legend, so the match is not certain, especially among the blue shades of the lower pies. / PBS is the vehicle control, not a test substance. Its values are given because they are printed under that name. / Panel d: the quadrant numbers are in very small print, so 3, 5, 6, 8 and 9 cannot be told apart with certainty. / PBS WT, Monocytes 13,3: either 3 could be 8 / PBS WT, Neutrophils 2,51: 5 could be 6 / PBS WT, Q4 83,6: 8, 3 and 6 uncertain / PBS WT, Q3 0,53: 5 and 3 uncertain / PBS MyD88-ko, Monocytes 2,34: 3 could be 8 / PBS MyD88-ko, Neutrophils 0,95: 9 and 5 uncertain / PBS MyD88-ko, Q4 94,4: 9 uncertain / PBS 5xTLR-ko, Monocytes 12,8: 8 could be 3 / PBS 5xTLR-ko, Neutrophils 0,88: either 8 uncertain / PBS 5xTLR-ko, Q4 85,0: 8 and 5 uncertain / PBS 5xTLR-ko, Q3 1,32: 3 could be 8 / Lugdunin WT, Monocytes 17,3: 3 could be 8 / Lugdunin WT, Q4 70,6: 6 could be 8 / Lugdunin WT, Q3 0,99: either 9 uncertain / Lugdunin MyD88-ko, Monocytes 3,14: 3 could be 8 / Lugdunin MyD88-ko, Neutrophils 0,54: 5 could be 6 / Lugdunin MyD88-ko, Q4 94,9: either 9 uncertain / Lugdunin 5xTLR-ko, Monocytes 12,9: 9 could be 8 / Lugdunin 5xTLR-ko, Q4 84,3: 8 and 3 uncertain / Lugdunin 5xTLR-ko, Q3 1,06: 6 could be 8
To analyze the immune cell composition and cytokines in the skin, 15 µL containing 1.5 μg lugdunin or PBS as a control were epicutaneously applied for 24 h on the shaved back skin of C57BL/6 WT/MYD88-ko/5xTLR-ko mice. After 24 h, mice were euthanized and relevant skin areas or 4 mm skin punches were removed for immune cell analysis and LEGENDplex^TM (BioLegend) cytokine analysis. […]

[1] = 5xTLR-ko mice, 1.5 µg lugdunin 24 h, one value per mouse
[2] = MyD88-ko mice, 1.5 µg lugdunin 24 h, one value per mouse
[3] = WT mice, 1.5 µg lugdunin 24 h, one value per mouse

## Lugdunin
[1]
  percentage of monocytes (Ly6C+Ly6G−) of CD11b+CD45+ live cells: completely impaired and 20.3% and 17.1% and 9.43% and 21.4% and 16.9% and 6.11% and 12.9%
  percentage of neutrophils (Ly6C+Ly6G+) of CD11b+CD45+ live cells: completely impaired and 5.72% and 2.72% and 4.06% and 8.41% and 1.29% and 0.57% and 1.74%
10 WT mice, 1.5 µg lugdunin epicutaneous 24 h, each mouse two values (two stainings), Fig 3b
  percentage of CD45+ live cells in mouse skin: 14.9% and 13.5% and 14.7% and 11.7% and 14.6% and 11.5% and 13.9% and 11.3% and 13.1% and 10.2% and 12.2% and 10.7% and 12.3% and 10.1% and 6.9% and 8.55%
[2]
  percentage of monocytes (Ly6C+Ly6G−) of CD11b+CD45+ live cells: completely impaired and 8.96% and 15.5% and 8.8% and 15.6% and 3.14% and 1.49% and 4.64% and 1.54%
  percentage of neutrophils (Ly6C+Ly6G+) of CD11b+CD45+ live cells: completely impaired and 2.26% and 5.17% and 2.81% and 2.01% and 0.54% and 0.23% and 0.5% and 0.44%
[3]
  percentage of monocytes (Ly6C+Ly6G−) of CD11b+CD45+ live cells: significantly enhanced recruitment and 15.8% and 17.3% and 13.3% and 8.16% and 21.5% and 17.9% and 10.5% and 16.5% and 16% and 7.28%
  percentage of neutrophils (Ly6C+Ly6G+) of CD11b+CD45+ live cells: significantly enhanced recruitment and 2.57% and 6.43% and 4.87% and 2.11% and 8.34% and 11.1% and 2.51% and 1.25% and 4.02% and 5.05%
WT mice, 1.5 µg lugdunin 24 h, one value per mouse, Supp Fig 3b
  NK cells, % NK1.1+ cells of live CD45+ cells: 17.7% and 16.5% and 19.9% and 14.6% and 15.5% and 15.6% and 22.8% and 24.4% and 19.7% and 17.2%
WT mice, 1.5 µg lugdunin 24 h, one value per mouse, Supp Fig 3c
  B cells, % CD19+ cells of live CD45+ cells: 0% and 0.14% and 0.15% and 0.03% and 0.04% and 0.05% and 0.01% and 0.02%
WT mice, 1.5 µg lugdunin 24 h, one value per mouse, Supp Fig 3e
  Dendritic cells, % CD11c+ cells of live CD45+ cells: 16.5% and 7.96% and 9.38% and 7.83% and 7.66% and 8.63% and 12.4% and 7.01% and 13.5% and 11.2%
WT mice, 1.5 µg lugdunin 24 h, one value per mouse, Supp Fig 3f
  CD11b+ cells, % of live CD45+ cells: 25.3% and 49.5% and 44.6% and 53.3% and 45% and 48.5% and 39.3% and 50.8% and 43.6%
WT mice, 1.5 µg lugdunin 24 h, one value per mouse, Supp Fig 3g
  Macrophages, % F4/80+ cells of CD11b+ CD45+ live cells: slightly reduced and 61.4% and 62.3% and 69.6% and 70.5% and 63.1% and 61.1% and 64.2% and 53.1% and 77.9%
WT mice, 1.5 µg lugdunin 24 h, one value per mouse, Supp Fig 3d
  T cells, % CD3+ cells of live CD45+ cells: 14.9% and 10.6% and 8% and 7.67% and 10.1% and 12.6% and 9.79% and 11.5% and 8.32% and 13.4%
